In US20190192699A1, “NUCLEAR IMAGING AND RADIOTHERAPEUTICS AGENTS TARGETING CARBONIC ANHYDRASE IX AND USES THEREOF” (THE JOHNS HOPKINS UNIVERSITY, priority 2016, published 2019):

What was measured:
CAIX [1] = molecular target: T1, CAIX (Homo sapiens, UniProt Q16790); assay: Competitive fluorescence polarization assay for [113/115In]XYIMSR-01; type: binding; set-up: purchased R&D Systems; details: for IC50: 100 nM CAIX, 80 nM FITC-labeled 8, read-out: IC50, inhibition of fluorescence polarization of FITC labeled 8; for binding affinity to CAIX (in words): competitive fluorescence polarization
Source text: (§1) General Procedures. Solvents and chemicals obtained from commercial sources were of analytical grade or better and used without further purification. Fmoc-protected azidolysine, HBTU, and N-α-fmoc-L-aspartic acid α-tert-butyl ester were purchased from Chem Impex International, Inc. (Wooddale, Ill.). Carrier-free [^111In]InCl3 was purchased from MDS Nordion (Ottawa, ON, Canada). DOTA-NHS-ester (1,4,7,10-tetraazacyclododecane-1,4,7,10-tetraacetic acid mono N-hydroxysuccinimide ester) was purchased from Macrocyclics, Inc. (Dallas, Tex.). Indium (III) nitrate, triethylsilane (Et3SiH), N,N-diisopropylethylamine (DIEA), triethylamine (TEA), piperidine, 4,4-bis(4-hydroxyphenyl)valeric acid, copper iodide (CuI), and tris[(1-benzyl-1H-1,2,3-triazol-4-yl)methyl]amine (TBTA) were purchased from Sigma-Aldrich (Saint Louis, Mo.). Pre-loaded O-bis-(aminoethyl)ethylene glycol on trityl resin was purchased from EMD Millipore (Billerica, Mass.). Flash chromatography was performed using MP SiliTech 32-63 D 60 Å silica gel purchased from Bodman (Aston, Pa.). Recombinant human CAIX was purchased from R&D Systems (Minneapolis, Minn.). 1H NMR spectra were recorded on a Bruker Ultrashield 500 MHz spectrometer. Chemical shifts (δ) were reported in ppm downfield by reference to proton resonances resulting from incomplete deuteration of the NMR solvent. ESI mass spectra were obtained on a Bruker Daltonics Esquire 3000 Plus spectrometer (Billerica, Mass.).
Competitive Fluorescence Polarization Assay for [^113/115In]XYIMSR-01. Fluorescence polarization (FP) experiments were performed in 21 μL of the assay buffer (12.5 mM Tris-HCl, pH 7.5, 75 mM NaCl) in black flat bottom 384-well microplates (Corning, Inc., New York, N.Y.) The FP reaction employed 100 nM of purified CAIX (R&D systems, Minneapolis, Minn.) and 80 nM FITC-labeled 8 (Wichert, et al., 2015) within the assay buffer. The FP values were measured as mP units using the Victor3 multi-label plate reader equipped with excitation (485 nm) and emission (535 nm) filters (Perkin Elmer, Waltham, Mass.). 100 nM CAIX was incubated with serially diluted (from 1 μM to 61 fM) concentrations of the three targeting molecules, 2, XYIMSR-01, and [^113/115In]XYIMSR-01 for 30 min at room temperature in 384-well plates. 80 nM 8 was added to each well and the reaction was incubated for 30 min at room temperature followed by FP measurement. Experiments were carried out in triplicate and the concentration resulting in 50% response (IC50) was calculated in GraphPad Prism 5 (GraphPad Software, La Jolla, Calif.) using the sigmoidal dose-response regression function.

CAIX [2] = molecular target: T1, CAIX; assay: Competitive fluorescence polarization assay for [Al19F]XYIMSR-04, [63/65Cu]XYIMSR-06 and [175Lu]XYIMSR-01; type: binding; set-up: purchased R&D Systems; details: 100 nM CAIX, 80 nM FITC-labeled ligand; read-out: IC50, competitive fluorescence polarization (similar method)
Source text: as §1
Competitive Fluorescence Polarization Assay for [Al^19F]XYIMSR-04, [^63/65Cu]XYIMSR-06, and [^175Lu]XYIMSR-01. Fluorescence polarization (FP) experiments were performed in 21 μL of the assay buffer (12.5 mM Tris-HCl, pH 7.5, 75 mM NaCl) in transparent flat bottom 384 well Small Volume™ LoBase Microplates (Greiner Bio-One, Frickenhausen Germany). The FP reaction employed 100 nM of purified CAIX (R&D systems, Minneapolis, Minn.) and 80 nM FITC-labeled ligand within the assay buffer. The FP values were measured as mP units using the Safire2™ plate reader (Tecan, Morrisville, N.C.) with excitation at 475 nm and emission at 532 nm emission. 100 nM CAIX was incubated with serially diluted (from 8 μM to 488.2 fM) concentrations of the […] targeting molecules, 2, [Al^19F]XYIMSR-04, [^63/65Cu]XYIMSR-06 and [^175Lu]XYIMSR-01 for 30 min at room temperature in 384 well plates. 80 nM FITC-labeled ligand was added to each well and the reaction was incubated for 30 min at room temperature followed by FP measurements. Experiments were carried out in triplicate and the concentration resulting in 50% response (IC50) was calculated in GraphPad Prism 5 (GraphPad Software, La Jolla, Calif.) using the sigmoidal dose-response regression function.

Row | Compound | IC50 (CAIX [1]) [nM] | binding affinity to CAIX (in words) (CAIX [1]) | IC50 (CAIX [2]) [nM]
1 | CC(CCC(=O)N[C@@H](CC(=O)N[C@@H](CC(=O)N[C@@H](CCCCn1cc(CCCC(=O)Nc2nnc(S(N)(=O)=O)s2)nn1)C(=O)NCCOCCOCCNC(=O)CN1CCN(CC(=O)O)CCN(CC(=O)O)CCN(CC(=O)O)CC1)C(=O)O)C(=O)O)(c1ccc(O)cc1)c1ccc(O)cc1 [XYIMSR-01, 2,2′,2″-(10-((14S,18S,22S)-18,22-dicarboxy-27,27-bis(4-hydroxyphenyl)-2,13,16,20,24-pentaoxo-14-(4-(4-(4-oxo-4-((5-sulfamoyl-1,3,4-thiadiazol-2-yl)amino)butyl)-1H-1,2,3-triazol-1-yl)butyl)-6,9-dioxa-3,12,15,19,23-pentaazaoctacosyl)-1,4,7,10-tetraazacyclododecane-1,4,7-triyl)triacetic acid] | 67 | high binding affinity | 
2 | CC(CCC(=O)N[C@@H](CC(=O)N[C@@H](CC(=O)N[C@@H](CCCCn1cc(CCCC(=O)Nc2nnc(S(N)(=O)=O)s2)nn1)C(=O)NCCOCCOCCNC(=O)CN1CCN2CCN(CC1)CC(=O)[O][Al]([F])[O]C(=O)C2)C(=O)O)C(=O)O)(c1ccc(O)cc1)c1ccc(O)cc1 [[Al^19F]XYIMSR-04, [Al^19F] 2,2′-(7-((14S,18S,22S)-18,22-dicarboxy-27,27-bis(4-hydroxyphenyl)-2,13,16,20,24-pentaoxo-14-(4-(4-(4-oxo-4-((5-sulfamoyl-1,3,4-thiadiazol-2-yl)amino)butyl)-1H-1,2,3-triazol-1-yl)butyl)-6,9-dioxa-3,12,15,19,23-pentaazaoctacosyl)-1,4,7-triazonane-1,4-diyl)diacetic acid] |  |  | 96.7 ± 3.3
3 | CC(CCC(=O)N[C@@H](CC(=O)N[C@@H](CC(=O)N[C@@H](CCCCn1cc(CCCC(=O)Nc2nnc(S(N)(=O)=O)s2)nn1)C(=O)NCCOCCOCCNC(=S)Nc1ccc(CC2CN(CC(=O)O)CCN(CC(=O)O)CCN2CC(=O)O)cc1)C(=O)O)C(=O)O)(c1ccc(O)cc1)c1ccc(O)cc1.[Cu] (stereo partly drawn) [[^63/65Cu]XYIMSR-06, [^63/65Cu]2,2′,2″-(2-(4-(3-((11S,15S,19S)-15,19-dicarboxy-24,24-bis(4-hydroxyphenyl)-10,13,17,21-tetraoxo-11-(4-(4-(4-oxo-4-((5-sulfamoyl-1,3,4-thiadiazol-2-yl)amino)butyl)-1H-1,2,3-triazol-1-yl)butyl)-3,6-dioxa-9,12,16,20-tetraazapentacosyl)thioureido)benzyl)-1,4,7-triazonane-1,4,7-triyl)triacetic acid] |  |  | 156 ± 4.3
4 | CC(CCC(=O)NC(CC(=O)NC(CC(=O)NC(CCCCn1cc(CCCC(=O)Nc2nnc(S(N)(=O)=O)s2)nn1)C(=O)NCCOCCOCCNC(=O)CN1CCN(CC(=O)O)CCN(CC(=O)O)CCN(CC(=O)O)CC1)C(=O)O)C(=O)O)(c1ccc(O)cc1)c1ccc(O)cc1 (stereo not shown) [[^113/115In]XYIMSR-01] | 108 | high binding affinity | 
5 | CC(CCC(=O)N[C@@H](CC(=O)N[C@@H](CC(=O)N[C@@H](CCCCn1cc(CCCC(=O)Nc2nnc(S(N)(=O)=O)s2)nn1)C(=O)NCCOCCOCCNC(=O)CN1CCN(CC(=O)O)CCN(CC(=O)O)CCN(CC(=O)O)CC1)C(=O)O)C(=O)O)(c1ccc(O)cc1)c1ccc(O)cc1.[Lu] [[^175Lu]XYIMSR-01, [^175Lu]2,2′,2″-(10-((14S,18S,22S)-18,22-dicarboxy-27,27-bis(4-hydroxyphenyl)-2,13,16,20,24-pentaoxo-14-(4-(4-(4-oxo-4-((5-sulfamoyl-1,3,4-thiadiazol-2-yl)amino)butyl)-1H-1,2,3-triazol-1-yl)butyl)-6,9-dioxa-3,12,15,19,23-pentaazaoctacosyl)-1,4,7,10-tetraazacyclododecane-1,4,7-triyl)triacetic acid] |  |  | 122 ± 3.8
